Legend:
[1] = test system: Phakopsora pachyrhizi (F129L); assay: Protective control of soybean rust on soybeans (PHAKPA P6); type: in vivo; details: for % PHAKPA (F129L) Disease level P6 at 4 ppm: protective P6, 4 ppm; for % PHAKPA (F129L) Disease level P6 at 4 ppm / % PHAKPA (F129L) Disease level P6 at 16 ppm: soybean rust F129L; for % PHAKPA (F129L) Disease level P6 at 16 ppm: protective P6, 16 ppm; for PHAKPA (F129L) Disease level (%) P6 at 16 ppm: P6 protective, % diseased leaf area
[2] = test system: Phakopsora pachyrhizi (F129L); assay: Protective control of soybean rust on soybeans (PHAKPA P2); type: in vivo; details: for % PHAKPA (F129L) Disease level P2 at 4 ppm: protective P2, 4 ppm; for % PHAKPA (F129L) Disease level P2 at 4 ppm / % PHAKPA (F129L) Disease level P2 at 16 ppm: soybean rust F129L; for % PHAKPA (F129L) Disease level P2 at 16 ppm: protective P2, 16 ppm; for PHAKPA (F129L) Disease level (%) P2 at 4 ppm / PHAKPA (F129L) Disease level (%) P2 at 16 ppm: P2 protective, % diseased leaf area

Row | Compound | % PHAKPA (F129L) Disease level P6 at 4 ppm [1] [%] | % PHAKPA (F129L) Disease level P6 at 16 ppm [1] [%] | % PHAKPA (F129L) Disease level P2 at 4 ppm [2] [%] | % PHAKPA (F129L) Disease level P2 at 16 ppm [2] [%] | PHAKPA (F129L) Disease level (%) P6 at 16 ppm [1] [%] | PHAKPA (F129L) Disease level (%) P2 at 4 ppm [2] [%] | PHAKPA (F129L) Disease level (%) P2 at 16 ppm [2] [%]
1 | CNC(=O)/C(=C/OC)c1cccc(C)c1CO/N=C(\C)c1cccc(C(F)(F)F)c1 [compound 232] | 100 | 83 | 100 | 73 |  |  | 
2 | CNC(=O)/C(=N/OC)c1cccc(C)c1CO/N=C(\C)c1ccc(OC)cc1OC(F)(F)F [compound 337] | 13 | 1 | 9 | 0 |  |  | 
3 | CNC(=O)/C(=N/OC)c1cccc(C)c1CO/N=C(\C)c1ccc(Br)cc1C(F)(F)F [compound 258] | 73 | 8 | 32 | 7 |  |  | 
4 | CO/N=C(/C(=O)OC)c1cccc(C)c1CO/N=C(\C)c1cccc(C#CC(F)(F)F)c1 [compound 52] | 90 | 43 | 63 | 28 |  |  | 
5 | CNC(=O)/C(=N/OC)c1cccc(C)c1CO/N=C(\C)c1ccc(Cl)cc1OC(F)(F)F [compound 375] | 40 | 6 | 47 | 8 |  |  | 
6 | CO/N=C(/C(=O)OC)c1cccc(C)c1CO/N=C(\C)c1cc(F)cc(F)c1 [compound 87] | 7 | 0 | 8 | 0 |  |  | 
7 | CNC(=O)/C(=N/OC)c1cccc(C)c1CO/N=C(\C)c1ccc(Cc2ccccc2)cc1OC(F)(F)F [compound 419] | 60 | 12 | 40 | 18 |  |  | 
8 | CO/N=C(/C(=O)OC)c1cccc(C)c1CO/N=C(\C)c1ccc(-c2ccccc2)cc1 [compound 111] | 46 | 10 | 28 | 8 |  |  | 
9 | CNC(=O)/C(=N/OC)c1cccc(C)c1CO/N=C(\C)c1cccc(C(F)(F)F)c1F [compound 69] | 13 | 0 | 2 | 0 |  |  | 
10 | CO/N=C(/C(=O)OC)c1cccc(C)c1CO/N=C(\C)c1c(F)cccc1F [compound 213] | 40 | 11 | 50 | 3 |  |  | 
11 | CNC(=O)/C(=N/OC)c1cccc(C)c1CO/N=C(\C)c1cc(Cl)c(F)c(Cl)c1 [compound 247] | 33 | 8 | 16 | 2 |  |  | 
12 | CO/N=C(/C(=O)OC)c1cccc(C)c1CO/N=C(\C)c1cc(C(F)(F)F)cc(F)c1F [compound 180] | 5 | 0 | 40 | 7 |  |  | 
13 | CNC(=O)/C(=N/OC)c1cccc(C)c1CO/N=C(\CC(F)(F)F)c1ccccc1C [compound 393] | 93 | 42 | 93 | 55 |  |  | 
14 | CO/N=C(/C(=O)OC)c1cccc(C)c1CO/N=C(\C)c1c(F)cc(F)cc1C(F)(F)F [compound 360] | 80 | 5 | 53 | 9 |  |  | 
15 | CNC(=O)/C(=N/OC)c1cccc(C)c1CO/N=C(\C)c1ccccc1OC(F)F [compound 252] | 87 | 32 | 50 | 3 |  |  | 
16 | C#Cc1cc(F)ccc1/C(C)=N/OCc1c(C)cccc1/C(=N\OC)C(=O)NC [compound 286] | 97 | 27 | 67 | 15 |  |  | 
17 | CO/N=C(/C(=O)OC)c1cccc(C)c1CO/N=C(\C)c1ccc(C(C)=O)cc1 [compound 166] | 90 | 43 | 100 | 83 |  |  | 
18 | CNC(=O)/C(=N/OC)c1cccc(C)c1CO/N=C(\C)c1ccc(Cl)c(F)c1OC(F)(F)F [compound 449] | 57 | 9 | 33 | 10 |  |  | 
19 | CNC(=O)/C(=N/OC)c1cccc(C)c1CO/N=C(/c1cccc(C)c1)C1CC1 [drawing 975, reference compound] |  |  |  |  | 67 | 67 | 
20 | CO/N=C(/C(=O)OC)c1cccc(C)c1CO/N=C(/c1cccc(Cl)c1)C1CC1 [drawing 981, reference compound] |  |  |  |  | 87 | 83 | 

Row | Compound | % PHAKPA (F129L) Disease level P6 at 4 ppm [1] [%] | % PHAKPA (F129L) Disease level P6 at 16 ppm [1] [%] | % PHAKPA (F129L) Disease level P2 at 4 ppm [2] [%] | % PHAKPA (F129L) Disease level P2 at 16 ppm [2] [%] | PHAKPA (F129L) Disease level (%) P6 at 16 ppm [1] [%] | PHAKPA (F129L) Disease level (%) P2 at 4 ppm [2] [%] | PHAKPA (F129L) Disease level (%) P2 at 16 ppm [2] [%]
21 | CNC(=O)/C(=N/OC)c1cccc(C)c1CO/N=C(\C)c1cccc(OC)c1 [compound 79] | 44 | 4 | 21 | 2 |  |  | 
22 | CO/N=C(/C(=O)OC)c1ccccc1CO/N=C(\C)c1ccccc1C(F)(F)F [reference compound] |  |  |  |  | 90 |  | 87
23 | CO/N=C(/C(=O)OC)c1cccc(C)c1CO/N=C(\C)c1cccc(Cl)c1C(F)(F)F [compound 421] | 87 | 57 | 100 | 33 |  |  | 
24 | CNC(=O)/C(=N/OC)c1cccc(C(F)F)c1CO/N=C(\C)c1cccc(C(F)(F)F)c1 [Ex. 23] | 20 | 1 | 12 | 1 |  |  | 
25 | CO/C=C(/C(=O)OC)c1cccc(C)c1CO/N=C(\C)c1c(F)cccc1C(F)(F)F [compound 390] | 18 | 2 | 22 | 0 |  |  | 
26 | CNC(=O)/C(=N/OC)c1cccc(C)c1CO/N=C(\C)c1ccc(F)c(F)c1 [compound 132] | 6 | 0 | 1 | 0 |  |  | 
27 | CO/N=C(/C(=O)OC)c1cccc(C)c1CO/N=C(\C)c1cc(Cl)c(F)c(Cl)c1 [compound 246] | 77 | 7 | 40 | 15 |  |  | 
28 | CNC(=O)/C(=N/OC)c1cccc(C)c1CO/N=C(\C)c1cccc(N2CC(F)(F)C2)c1 [Ex. 282] |  | 18 |  | 15 | 18 |  | 15
29 | CNC(=O)/C(=N/OC)c1cccc(C)c1CO/N=C(\C)c1ccccc1Oc1ccccc1 [compound 321] |  |  | 100 | 40 |  |  | 
30 | CO/N=C(/C(=O)OC)c1cccc(C)c1CO/N=C(\C)c1cccc(OC(F)(F)F)c1 [drawing 936, reference compound] |  |  |  |  |  | 17 | 
31 | CNC(=O)/C(=N/OC)c1cccc(C)c1CO/N=C(\C)c1ccc(OC(F)(F)F)cc1Cl [compound 271] |  |  | 5 | 1 |  |  | 
32 | CNC(=O)/C(=N/OC)c1cccc(C)c1CO/N=C(\C)c1cc(C(F)(F)F)ccc1C [compound 273] |  |  | 60 | 3 |  |  | 
33 | CO/N=C(/C(=O)OC)c1cccc(C)c1CO/N=C(\OC)c1cccc(C(F)(F)F)c1 [drawing 977, reference compound] |  |  |  |  | 23 |  | 
34 | CO/N=C(/C(=O)OC)c1cccc(C)c1CO/N=C(\C)c1ccc(CC2COC2)cc1 [compound 82] |  |  | 87 | 57 |  |  | 
35 | CCOc1ccccc1/C(C)=N/OCc1c(C)cccc1/C(=N\OC)C(=O)NC [compound 312] |  |  | 100 | 53 |  |  | 
36 | CNC(=O)/C(=N/OC)c1cccc(C)c1CO/N=C(\C)c1ccccc1OCOC [compound 314] |  |  | 100 | 40 |  |  | 
37 | CNC(=O)/C(=N/OC)c1cccc(C)c1CO/N=C(\C)c1ccccc1OC(C)C [compound 315] |  |  | 100 | 60 |  |  | 
38 | CNC(=O)/C(=N/OC)c1cccc(C)c1CO/N=C(\C)c1cc(C(F)(F)F)ccc1C(F)(F)F [compound 272] |  |  | 60 | 8 |  |  | 
39 | CNC(=O)/C(=N/OC)c1cccc(C)c1CO/N=C(\C)c1ccc(CC2COC2)cc1 [compound 83] |  |  | 97 | 73 |  |  | 
40 | CNC(=O)/C(=N/OC)c1cccc(C)c1CO/N=C(\OC)c1cccc(C)c1 [drawing 974, reference compound] |  |  |  |  | 45 |  | 

Reference: patent publication US20230172204A1 (BASF SE, priority 2020, published 2023)
